From patent publication US10450311B2, “Pesticidally active heterocyclic derivatives with sulphur containing substituents” (Syngenta Participations AG, priority 2014, dated 2019)

Legend:
Format in all cases: in vivo
[1] = tested on: Diabrotica balteata (Corn Root Worm); assay: Activity against Diabrotica balteata, sprayed maize sprouts; settings: 96 h, application rate of 200 ppm, larvae on maize sprouts, 4 days after infestation
Procedure: Example B2: Activity Against Diabrotica balteata (Corn Root Worm)
Maize sprouts, placed on an agar layer in 24-well microtiter plates were treated with aqueous test solutions prepared from 10′000 ppm DMSO stock solutions by spraying. After drying, the plates were infested with […] (6 to 10 per well). The samples were assessed for mortality 4 days after infestation.

[2] = tested on: Spodoptera littoralis (Egyptian Cotton Leaf Worm); assay: Activity against Spodoptera littoralis, sprayed cotton leaf discs; settings: foliar, 72 h, application rate of 200 ppm, L1 larvae on cotton leaf discs, 3 days after infestation, read-out: control (at least one of mortality, anti-feedant effect, growth inhibition)
Procedure: Example B9: Activity Against Spodoptera littoralis (Egyptian Cotton Leaf Worm)
Cotton leaf discs were placed on agar in 24-well microtiter plates and sprayed with aqueous test solutions prepared from 10′000 ppm DMSO stock solutions. After drying the leaf discs were infested with five L1 larvae. The samples were assessed for mortality, anti-feedant effect, and growth inhibition in comparison to untreated samples 3 days after infestation. Control of Spodoptera littoralis by a test sample is when at least one of mortality, anti-feedant effect, and growth inhibition is higher than the untreated sample.

[3] = tested on: Plutella xylostella (Diamond Back Moth); assay: Activity against Plutella xylostella, treated artificial diet; settings: 120 h, application rate of 200 ppm, L2 larvae on artificial diet, 5 days after infestation, read-out: effect in at least one of the two categories (mortality or growth inhibition)
Procedure: Example B8: Activity Against Plutella xylostella (Diamond Back Moth)
24-well microtiter plates with artificial diet were treated with aqueous test solutions prepared from 10′000 ppm DMSO stock solutions by pipetting. After drying, the plates were infested with L2 larvae (10 to 15 per well). The samples were assessed for mortality and growth inhibition in comparison to untreated samples 5 days after infestation.

[4] = tested on: Euschistus heros (Neotropical Brown Stink Bug); assay: Activity against Euschistus heros, sprayed soybean leaf; settings: 120 h, application rate of 200 ppm, N-2 nymphs on soybean leaf, 5 days after infestation
Procedure: Example B3: Activity Against Euschistus heros (Neotropical Brown Stink Bug)
Soybean leaf on agar in 24-well microtiter plates were sprayed with aqueous test solutions prepared from 10′000 ppm DMSO stock solutions. After drying the leaf were infested with N-2 nymphs. The samples were assessed for mortality 5 days after infestation.

[5] = tested on: Aedes aegypti (Yellow Fever Mosquito); assay: whole plant or invertebrate; settings: 48 h, test rate of 5 ppm, L2 larvae in 96-well plates, incubation period of 2 days, read-out: effect in at least one of the two categories (mortality or growth inhibition)
Procedure: Example B14: Activity Against Aedes aegypti (Yellow Fever Mosquito)
10 to 15 Aedes larvae (L2) together with a nutrition mixture were placed in 96-well microtiter plates. Test compounds were pipetted into the wells. After an incubation period of 2 days insects were assessed for mortality and growth inhibition.

[6] = tested on: Spodoptera littoralis (Egyptian Cotton Leaf Worm); assay: Activity against Spodoptera littoralis, compound in agar taken up by lettuce; settings: 144 h, test rate of 12.5 ppm, lettuce root uptake, 6 days after infestation, read-out: effect in at least one of the three categories (mortality, anti-feedancy, or growth inhibition)
Description: Example B10: Activity Against Spodoptera littoralis (Egyptian Cotton Leaf Worm)
(§1) Test compounds were applied by pipette from 10′000 ppm DMSO stock solutions into 24-well plates and mixed with agar. Lettuce seeds were placed on the agar and the multi well plate was closed by another plate which contains also agar. After 7 days the roots have absorbed the compound and the lettuce has grown into the lid plate. The lettuce leafs were now cut off into the lid plate. Spodoptera eggs were pipetted through a plastic stencil on a humid gel blotting paper and the plate closed with it. The samples were assessed for mortality, anti-feedant effect and growth inhibition in comparison to untreated samples 6 days after infestation.

[7] = tested on: Spodoptera littoralis (Egyptian Cotton Leaf Worm); assay: Activity against Spodoptera littoralis, systemic activity; settings: 144 h, test rate of 12.5 ppm, in agar, lettuce root uptake, 6 days after infestation
Description: Example B11: Activity Against Spodoptera littoralis (Egyptian Cotton Leaf Worm), Systemic Activity
as §1, with “mortality” for “mortality, anti-feedant effect and growth inhibition in comparison to untreated samples”

[8] = tested on: Myzus persicae (Green Peach Aphid); assay: Activity against Myzus persicae, sprayed sunflower leaf discs; settings: foliar, 144 h, application rate of 200 ppm, aphid population of mixed ages on sunflower leaf discs, 6 days after infestation
Procedure: Example B5: Activity Against Myzus persicae (Green Peach Aphid)
Sunflower leaf discs were placed on agar in a 24-well microtiter plate and sprayed with aqueous test solutions prepared from 10′000 ppm DMSO stock solutions. After drying, the leaf discs were infested with an aphid population of mixed ages. The samples were assessed for mortality 6 days after infestation.

[9] = tested on: Bemisia tabaci (Cotton White Fly); assay: Activity against Bemisia tabaci, sprayed cotton leaf discs; settings: foliar, 144 h, application rate of 200 ppm, adult white flies on cotton leaf discs, 6 days after incubation
Procedure: Example B1: Activity Against Bemisia tabaci (Cotton White Fly)
Cotton leaf discs were placed on agar in 24-well microtiter plates and sprayed with aqueous test solutions prepared from 10′000 ppm DMSO stock solutions. After drying the leaf discs were infested with adult white flies. The samples were checked for mortality 6 days after incubation. […] A35, A36 and A47. A1. A2, A3, A8, A10, A14 and A12.

CCS(=O)(=O)c1cc(-c2ccc(Cl)cc2)ccc1-c1nc2cc(C(F)(F)F)n(C)c(=O)c2n1C [Compound A72, 2-[4-(4-chlorophenyl)-2-ethylsulfonyl-phenyl]-3,5-dimethyl-6-(trifluoromethyl)imidazo[4,5-c]pyridin-4-one]
≥ 80%: mortality at 200 ppm [1] | percent control (mortality, anti-feedant effect or growth inhibition) at 200 ppm [2] | percent effect (mortality or growth inhibition) at 200 ppm [3] | mortality at 200 ppm [4]

CCS(=O)(=O)c1cc(-c2cc(F)cc(F)c2)cnc1-c1nc2cc(C(F)(F)F)n(C)c(=O)c2n1C [Compound A28, 2-[5-(3,5-difluorophenyl)-3-ethylsulfonyl-2-pyridyl]-3,5-dimethyl-6-(trifluoromethyl)imidazo[4,5-c]pyridin-4-one]
≥ 80%: mortality at 200 ppm [1] | percent effect (mortality or growth inhibition) at 5 ppm [5] | percent control (mortality, anti-feedancy or growth inhibition) at 12.5 ppm [6] | percent control (mortality, anti-feedant effect or growth inhibition) at 200 ppm [2] | percent effect (mortality or growth inhibition) at 200 ppm [3] | mortality at 200 ppm [4] | mortality at 12.5 ppm [7]

CCS(=O)(=O)c1cc(-c2ncccn2)ccc1-c1nc2cc(C(F)(F)F)n(C)c(=O)c2n1C [Compound A71, 2-(2-ethylsulfonyl-4-pyrimidin-2-yl-phenyl)-3,5-dimethyl-6-(trifluoromethyl)imidazo[4,5-c]pyridin-4-one]
≥ 80%: mortality at 200 ppm [8] | percent control (mortality, anti-feedant effect or growth inhibition) at 200 ppm [2] | percent effect (mortality or growth inhibition) at 200 ppm [3] | mortality at 200 ppm [4]

CCS(=O)(=O)c1cc(Br)cnc1-c1nc2cc(C(F)(F)F)n(C)c(=O)c2n1C [Compound A21, 2-[5-bromo-3-ethylsulfonyl-2-pyridyl]-3,5-dimethyl-6-(trifluoromethyl)imidazo[4,5-c]pyridin-4-one]
≥ 80%: mortality at 200 ppm [1] | mortality at 200 ppm [8] | percent control (mortality, anti-feedancy or growth inhibition) at 12.5 ppm [6] | percent control (mortality, anti-feedant effect or growth inhibition) at 200 ppm [2] | percent effect (mortality or growth inhibition) at 200 ppm [3] | mortality at 200 ppm [4] | mortality at 12.5 ppm [7]

CCSc1cc(-n2ccc(C(F)(F)F)n2)cnc1-c1nc2cc(C(F)(F)F)n(C)c(=O)c2n1C [Compound A26, 2-[3-ethylsulfanyl-5-[3-(trifluoromethyl)pyrazol-1-yl]-2-pyridyl]-3,5-dimethyl-6-(trifluoromethyl)imidazo[4,5-c]pyridin-4-one]
≥ 80%: percent control (mortality, anti-feedant effect or growth inhibition) at 200 ppm [2]

CCS(=O)(=O)c1cc(-n2ccc(C(F)(F)F)n2)cnc1-c1nc2cc(C(F)(F)F)n(C)c(=O)c2n1C [Compound A27]
≥ 80%: percent control (mortality, anti-feedant effect or growth inhibition) at 200 ppm [2]

CCS(=O)(=O)c1cc(-c2cc(C(F)(F)F)ccn2)cnc1-c1nc2cc(C(F)(F)F)n(C)c(=O)c2n1C [Compound A42]
≥ 80%: mortality at 200 ppm [1] | mortality at 200 ppm [8] | percent effect (mortality or growth inhibition) at 5 ppm [5] | percent control (mortality, anti-feedancy or growth inhibition) at 12.5 ppm [6] | percent control (mortality, anti-feedant effect or growth inhibition) at 200 ppm [2] | percent effect (mortality or growth inhibition) at 200 ppm [3] | mortality at 200 ppm [4] | mortality at 12.5 ppm [7]

CCSc1cc(-c2ccc(C(F)(F)F)cc2)cnc1-c1nc2cc(C(F)(F)F)c(=O)n(C)c2n1C [Compound B5, 2-[3-ethylsulfanyl-5-[4-(trifluoromethyl)phenyl]-2-pyridyl]-3,4-dimethyl-6-(trifluoromethyl)imidazo[4,5-b]pyridin-5-one]
≥ 80%: mortality at 200 ppm [1] | percent control (mortality, anti-feedant effect or growth inhibition) at 200 ppm [2] | mortality at 200 ppm [4]

CCSc1cc(-n2cc(C(F)(F)F)cn2)cnc1-c1nc2cc(C(F)(F)F)n(C)c(=O)c2n1C [Compound A24, 2-[3-ethylsulfanyl-5-[4-(trifluoromethyl)pyrazol-1-yl]-2-pyridyl]-3,5-dimethyl-6-(trifluoromethyl)imidazo[4,5-c]pyridin-4-one]
≥ 80%: percent control (mortality, anti-feedancy or growth inhibition) at 12.5 ppm [6]

CCS(=O)(=O)c1cc(-c2ccc(C(F)(F)F)cc2)ccc1-c1nc2cc(C(F)(F)F)n(C)c(=O)c2n1C [Compound A70, 2-[2-ethylsulfonyl-4-[4-(trifluoromethyl)phenyl]phenyl]-3,5-dimethyl-6-(trifluoromethyl)imidazo[4,5-c]pyridin-4-one]
≥ 80%: mortality at 200 ppm [1] | percent effect (mortality or growth inhibition) at 5 ppm [5] | percent control (mortality, anti-feedant effect or growth inhibition) at 200 ppm [2] | percent effect (mortality or growth inhibition) at 200 ppm [3] | mortality at 200 ppm [4]

C=CCn1c(C(F)(F)F)cc2nc(-c3ncc(C(F)(F)F)cc3S(=O)(=O)CC)n(C)c2c1=O [Compound A3, 5-allyl-2-[3-ethylsulfonyl-5-(trifluoromethyl)-2-pyridyl]-3-methyl-6-(trifluoromethyl)imidazo[4,5-c]pyridin-4-one]
≥ 80%: mortality at 200 ppm [1] | mortality at 200 ppm [9] | percent control (mortality, anti-feedant effect or growth inhibition) at 200 ppm [2] | percent effect (mortality or growth inhibition) at 200 ppm [3] | mortality at 200 ppm [4]

CCS(=O)(=O)c1cc(-c2ccc(C#N)cc2)cnc1-c1nc2cc(C(F)(F)F)n(C)c(=O)c2n1C [Compound A41, 4-[6-[3,5-dimethyl-4-OXO-6-(trifluoromethyl)imidazo[4,5-c]pyridin-2-yl]-5-ethylsulfonyl-3-pyridyl]benzonitrile]
≥ 80%: mortality at 200 ppm [1] | mortality at 200 ppm [8] | percent effect (mortality or growth inhibition) at 5 ppm [5] | percent control (mortality, anti-feedancy or growth inhibition) at 12.5 ppm [6] | percent control (mortality, anti-feedant effect or growth inhibition) at 200 ppm [2] | percent effect (mortality or growth inhibition) at 200 ppm [3] | mortality at 200 ppm [4] | mortality at 12.5 ppm [7]

CCS(=O)(=O)c1cc(-c2ccc(C(F)(F)F)cc2)cnc1-c1nc2cc(C(F)(F)F)n(C)c(=O)c2n1C [Compound A22, 2-[3-ethylsulfonyl-5-[4-(trifluoromethyl)phenyl]-2-pyridyl]-3,5-dimethyl-6-(trifluoromethyl)imidazo[4,5-c]pyridin-4-one]
≥ 80%: mortality at 200 ppm [1] | mortality at 200 ppm [8] | percent effect (mortality or growth inhibition) at 5 ppm [5] | percent control (mortality, anti-feedancy or growth inhibition) at 12.5 ppm [6] | percent control (mortality, anti-feedant effect or growth inhibition) at 200 ppm [2] | percent effect (mortality or growth inhibition) at 200 ppm [3] | mortality at 200 ppm [4] | mortality at 12.5 ppm [7]

CCS(=O)(=O)c1cc(-c2ccc(C(F)(F)F)cc2)cnc1-c1nc2cc(Br)c(=O)n(C)c2n1C [Compound B3]
≥ 80%: mortality at 200 ppm [1] | mortality at 200 ppm [8] | percent control (mortality, anti-feedant effect or growth inhibition) at 200 ppm [2] | percent effect (mortality or growth inhibition) at 200 ppm [3] | mortality at 200 ppm [4]
